Each block holds one compound with its values, some of them ahead of it. Calls of active or inactive are those of the source.
Legend:
[1] = molecular target: T1, Oxysterols receptor LXR-beta (Homo sapiens, UniProt P55055); format: functional, cell-based
T1 sequence (P55055 whole entry): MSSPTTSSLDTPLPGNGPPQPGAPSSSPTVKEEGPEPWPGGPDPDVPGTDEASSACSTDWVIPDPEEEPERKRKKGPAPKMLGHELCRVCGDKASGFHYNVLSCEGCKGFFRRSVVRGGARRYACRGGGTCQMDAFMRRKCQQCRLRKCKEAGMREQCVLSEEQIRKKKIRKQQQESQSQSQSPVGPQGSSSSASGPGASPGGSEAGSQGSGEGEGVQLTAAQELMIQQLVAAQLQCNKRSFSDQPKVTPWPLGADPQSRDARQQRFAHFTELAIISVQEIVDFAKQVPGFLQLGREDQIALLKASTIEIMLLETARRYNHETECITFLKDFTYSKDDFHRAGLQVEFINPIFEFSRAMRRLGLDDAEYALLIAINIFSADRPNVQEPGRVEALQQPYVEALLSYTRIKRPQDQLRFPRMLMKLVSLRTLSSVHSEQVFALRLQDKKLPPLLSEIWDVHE

[2] = HepG2 cell cytotoxicity, dose response, cytotoxicity control, ATP luminescence, cherry-pick, activator set 2 (AID 1053143); format: functional, cell-based
[3] = A549 cell cytotoxicity, dose response, cytotoxicity control, plate reader, cherry-pick, antagonist series (AID 743412); format: functional, cell-based
[4] = inhibitors of HIV Env-driven cell fusion, dose response, cherry-pick (AID 652057); format: functional, cell-based
[5] = molecular target: T1, Oxysterols receptor LXR-beta; format: functional, cell-based; remark: listed apart in the source
Paired box protein Pax-8 = Paired box protein Pax-8 (Homo sapiens, UniProt Q06710); assay: inhibitors of PAX8-driven TPO luciferase reporter, dose response, RMG-I cells, cherry-pick (AID 687027); format: functional, cell-based;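 further: luciferase reporter driven by Pax8 target thyroperoxidase promoter measured by SteadyGlo luminescence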
[6] = off-target signal loss in HeLa-CEM21 co-culture – HeLa F-luc CTL cells, cherry-picked, counter-screen for HIV-1 Env fusion inhibitor project, dose response (AID 652040); format: functional, cell-based;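 further: potency for signal decrease marking cytotoxic or nonspecific inhibition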
[7] = LGR2 antagonists, dose response, cell-based, HEK293, CRE-luciferase reporter, cherry pick, set 2 (AID 743343); format: functional;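 further: transfected cells were stimulated with diluted bursicon conditioned medium after compound addition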
[8] = molecular target: T2, Rac GTPase-activating protein 1 (Homo sapiens, UniProt Q9H0H5); assay: MgcRacGAP GTPase-activating activity inhibitors, confirmation, biochemical, ADP Hunter fluorescence, primary and confirmatory (AID 624330); format: functional
T2 sequence (Q9H0H5 whole entry): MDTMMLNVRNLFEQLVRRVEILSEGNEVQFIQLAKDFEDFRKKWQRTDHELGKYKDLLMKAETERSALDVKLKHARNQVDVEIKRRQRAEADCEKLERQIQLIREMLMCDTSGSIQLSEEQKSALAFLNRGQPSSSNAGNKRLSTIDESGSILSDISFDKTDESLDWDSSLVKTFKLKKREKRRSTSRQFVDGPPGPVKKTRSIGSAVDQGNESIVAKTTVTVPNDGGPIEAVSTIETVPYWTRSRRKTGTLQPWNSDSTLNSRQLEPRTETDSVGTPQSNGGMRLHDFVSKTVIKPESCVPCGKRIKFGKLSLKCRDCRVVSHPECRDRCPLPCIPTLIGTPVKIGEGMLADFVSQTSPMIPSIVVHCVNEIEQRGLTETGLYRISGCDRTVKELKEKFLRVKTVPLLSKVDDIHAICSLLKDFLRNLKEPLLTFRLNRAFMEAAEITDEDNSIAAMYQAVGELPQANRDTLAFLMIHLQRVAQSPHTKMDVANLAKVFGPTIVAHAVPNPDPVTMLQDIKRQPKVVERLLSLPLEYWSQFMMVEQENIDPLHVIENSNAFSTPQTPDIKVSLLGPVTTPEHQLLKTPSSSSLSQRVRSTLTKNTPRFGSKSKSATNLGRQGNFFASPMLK

[9] = ZM109 Env clade C HIV-1 fusion inhibitors, dose response, HeLa effector, CEM target cells, luciferase, cherry-pick (AID 652058); format: functional, cell-based
[10] = inhibitors of clade B AD8 Env fusion, dose response, cell-based, cherry-pick (AID 652062); format: functional;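 further: luciferase signal from cell-cell fusion driven by HIV-1 clade B AD8 Env; potency is for inhibitors of fusion seen as a drop in luminescence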
[11] = MC4R antagonists, dose response, counter-screen for LGR2 antagonist project, cell-based, plate reader, cherry pick (AID 743444); format: functional;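 further: transfected HEK 293 cells stimulated with alpha-MSH peptide; potency of inhibitors of the alpha-MSH evoked signal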
[12] = human group III sPLA2 inhibitors, dose response, biochemical, QFRET, IC50 (AID 743457);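 further: green fluorescence rise as the enzyme cleaves BODIPY PC-A2 in liposomes; potency for inhibition of the enzyme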
Protein skinhead-1 = molecular target: T3, Protein skinhead-1 (Caenorhabditis elegans, UniProt P34707); format: functional
T3 sequence (P34707 whole entry): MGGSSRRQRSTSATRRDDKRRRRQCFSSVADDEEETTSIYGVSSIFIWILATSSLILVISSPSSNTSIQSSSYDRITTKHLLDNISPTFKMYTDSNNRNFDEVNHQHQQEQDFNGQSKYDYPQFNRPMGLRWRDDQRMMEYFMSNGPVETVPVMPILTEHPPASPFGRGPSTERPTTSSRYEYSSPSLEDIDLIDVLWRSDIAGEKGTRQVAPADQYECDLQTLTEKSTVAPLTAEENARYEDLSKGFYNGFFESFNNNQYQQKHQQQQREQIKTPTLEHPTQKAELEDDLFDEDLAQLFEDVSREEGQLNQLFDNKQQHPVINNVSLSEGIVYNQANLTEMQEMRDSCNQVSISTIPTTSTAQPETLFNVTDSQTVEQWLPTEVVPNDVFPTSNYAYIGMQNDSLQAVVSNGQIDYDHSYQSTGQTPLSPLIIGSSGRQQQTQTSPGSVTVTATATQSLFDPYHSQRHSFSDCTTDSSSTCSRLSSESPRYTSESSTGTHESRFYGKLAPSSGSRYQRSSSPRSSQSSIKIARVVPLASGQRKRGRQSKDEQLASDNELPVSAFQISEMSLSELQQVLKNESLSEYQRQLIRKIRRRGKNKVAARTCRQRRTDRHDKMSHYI

[13] = HEK293T cytotoxicity, dose response, cytotoxicity control for miR-122 modulator project, cell-based, activator set, cherry-pick (AID 720690); format: functional;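 further: HEK293T human cells scored for general mammalian cytotoxicity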
[14] = molecular target: T4, RNA-editing ligase 1, mitochondrial (Trypanosoma brucei brucei, UniProt P86926); assay: TbREL1 ligase inhibitors, dose response, biochemical, fluorescence, Trypanosoma brucei (AID 1117295); format: functional
T4 sequence (P86926 whole entry): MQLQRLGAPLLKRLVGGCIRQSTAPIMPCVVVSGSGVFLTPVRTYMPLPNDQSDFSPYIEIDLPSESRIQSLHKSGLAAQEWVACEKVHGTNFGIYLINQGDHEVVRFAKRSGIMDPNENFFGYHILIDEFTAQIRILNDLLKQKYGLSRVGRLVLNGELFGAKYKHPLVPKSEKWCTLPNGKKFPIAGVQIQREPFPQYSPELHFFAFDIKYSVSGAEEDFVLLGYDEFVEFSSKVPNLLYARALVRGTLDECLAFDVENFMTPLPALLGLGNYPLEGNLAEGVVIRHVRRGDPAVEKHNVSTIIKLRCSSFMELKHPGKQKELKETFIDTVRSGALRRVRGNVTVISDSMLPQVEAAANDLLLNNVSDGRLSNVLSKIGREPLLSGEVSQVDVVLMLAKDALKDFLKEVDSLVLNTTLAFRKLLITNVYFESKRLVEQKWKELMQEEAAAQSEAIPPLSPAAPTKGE

Chain of Paired box protein Pax-8 (Q06710 whole entry, the tested form may be a part): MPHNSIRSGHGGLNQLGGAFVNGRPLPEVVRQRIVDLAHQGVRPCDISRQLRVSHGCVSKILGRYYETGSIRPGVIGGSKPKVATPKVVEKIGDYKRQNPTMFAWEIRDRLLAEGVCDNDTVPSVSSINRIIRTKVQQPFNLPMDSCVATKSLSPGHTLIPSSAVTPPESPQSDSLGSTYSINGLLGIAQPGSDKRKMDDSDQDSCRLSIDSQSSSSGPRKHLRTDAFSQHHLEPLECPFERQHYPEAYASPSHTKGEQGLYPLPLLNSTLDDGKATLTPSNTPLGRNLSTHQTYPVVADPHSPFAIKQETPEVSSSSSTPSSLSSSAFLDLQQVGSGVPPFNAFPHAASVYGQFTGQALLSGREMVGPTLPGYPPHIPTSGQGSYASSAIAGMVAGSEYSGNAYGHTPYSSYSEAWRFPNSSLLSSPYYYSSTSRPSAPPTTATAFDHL

EC50 [1]: > 67.6 µM (inactive)
Structure (SMILES): Cc1ccc(-c2nnc(NC3CCCC3)s2)cc1

Structure (SMILES): Cc1ccc(C(=O)Nc2ncc(Cc3ccc(F)cc3)s2)o1
AC50 [2]: 12 µM (active)

Structure (SMILES): Cc1ccsc1/C=N/Nc1cccc(C(=O)O)c1
AC50 [3]: > 52 µM (inactive) | AC50 [4]: 1.32 µM (active) | EC50 [5]: > 67.5 µM (inactive) | AC50 (Paired box protein Pax-8): 4.41 µM (active) | AC50 [6]: 2.45 µM (active) | AC50 [7]: 1.3 µM (active) | IC50 [8]: 92.5 µM (active) | AC50 [9]: 7.12 µM (active) | AC50 [10]: 2.65 µM (active) | EC50 (cells): > 67.5 µM (inactive) | AC50 [11]: 1.14 µM (active)

EC50 [1]: > 67.5 µM (inactive)
Structure (SMILES): CN(C)c1cccc(-c2cnc(N3CCC(C(N)=O)CC3)s2)c1

IC50 [12]: > 122 µM (inactive) | IC50 [8]: 58.2 µM (active)
Structure (SMILES): CCN(CC)c1ccc(/C=N/NC(=S)NC)c(O)c1

Structure (SMILES): Fc1cccc(F)c1/C=C/c1ccc2ccccc2n1
EC50 [5]: > 67.5 µM (inactive) | IC50 (Protein skinhead-1): 36.8 µM (active) | EC50 (cells): > 67.5 µM (inactive)

Structure (SMILES): CNC[C@H]1Oc2cc(C#CC3CCCC3)ccc2S(=O)(=O)N([C@H](C)CO)C[C@H]1C
AC50 [13]: 30.9 µM (active)

IC50 [14]: > 96.6 µM (inactive)
Structure (SMILES): COC(=O)C1=C(C)N(Cc2cccc(C(F)(F)F)c2)C(NCc2cc(OC)c(OC)c(OC)c2)=NC1CCc1ccccc1 (stereo unspecified)

Reference: ChEMBL document CHEMBL1201862, “PubChem BioAssay data set” (2004)
